The structures appear in SMILES notation. Where “and” joins values, the source holds several entries; their conditions need not be identical. Identical values can stand only once.

This is an account of results in PMC10402871, “Design, synthesis and antiproliferative screening of newly synthesized acrylate derivatives as potential anticancer agents” (RSC Advances, 2023).

For data set [1], the system named is MCF-7 breast carcinoma cell line. In words: MTT cytotoxic activity against MCF-7 breast carcinoma cell line. It is filed as cell-based. The following applies: Homo sapiens, MCF7; MTT assay, MCF-7 cells, 24 h incubation. The procedure:
Cytotoxic activity of the synthesized acrylate derivatives 5a–6i was evaluated against the MCF-7 breast carcinoma cell line using the MTT colorimetric assay. CA-4 was included as a positive control. The results were summarized as IC50 values in Table 1.
Antiproliferative activity of the constructed acrylate molecules 5a–6i was determined on MCF-7 cell line as reported previously.[38] See ESI Appendix A. ^† […]
(§1) S4.2.1. Cytotoxic activity evaluation
To measure the cytotoxic actvity of the synthesized acrylate derivatives 5a,b and 6a-i in breast cancer (MCF-7) cell line. Cell viability assay was assessed using MTT assay method. Cells at density of 1 x 104 were seeded in a 96-well plate at 37 °C for 24 h under 5% CO2. After incubation, the cells were treated with different concentrations of the test acrylate derivatives 5a-6i and incubated for 24 h, then 20 µl of MTT solution at 5 mg/mL was applied and incubated for 4 h at 37 °C. Dimethyl sulphoxide (DMSO) in volume of 100 µl was added to each well to dissolve the purple formazan that had formed. The color intensity of the formazan product, which represents the growth condition of the cells, is quantified by using an ELISA plate reader (EXL 800, USA) at 570 nm absorbance. The experimental conditions were carried out with at least three replicates, and the experiments were repeated at least three times. […]
(Tetrazolium assays rely on reduction of a dye to a coloured formazan, in cell work by metabolically active cells.)

Data set [2] concerns MCF-10A. Description: MTT cytotoxic activity against MCF-10A cells. The following applies: Homo sapiens, MTT assay. It is filed as cell-based.
Data set [3] concerns the target T1, β-tubulin (Homo sapiens, UniProt P07437).
T1 construct: utilizing MCF-7 breast carcinoma cells; endogenous in cells; host or cells: MCF-7 breast carcinoma cells
In words: β-tubulin polymerization inhibition in MCF-7 cells (Human Beta-tubulin SimpleStep ELISA kit). It is filed as cell-based. The following applies: 48 h; for β-tubulin polymerization inhibition percentage: at IC50 concentration.
Source text: The disruption of the cellular microtubule structure and, more importantly, microtubule function that result from inhibiting β-tubulin polymerization leads to the triggering of cellular apoptosis.[30,31] Inhibition of tubulin polymerization has been identified as a possible therapeutic target for the creation of new cancer therapies.[32]
as §1
(§2) To measure the cytotoxic actvity of the synthesized acrylate derivatives 5a,b and 6a-i in breast cancer (MCF-7) cell line. Cell viability assay was assessed using MTT assay method. Cells at density of 1 x 104 were seeded in a 96-well plate at 37 °C for 24 h under 5% CO2. After incubation, the cells were treated with different concentrations […]
(§3) solution at 5 mg/mL was applied and incubated for 4 h at 37 °C. Dimethyl sulphoxide (DMSO) in volume of 100 µl was added to each well to dissolve the purple formazan that had formed. The color intensity of the formazan product, which represents the growth condition of the cells, is quantified by using an ELISA plate reader (EXL 800, USA) at 570 nm absorbance. The experimental conditions were carried out with at least three replicates, and the experiments were repeated at least three times.
(§4) S4.2.2. Tubulin polymerization Assay

In data set [4] the test system is MCF-7 breast carcinoma cells. In words: Flow cytometric cell cycle analysis of MCF-7 cells. The note with it: 2.57 μM, 48 h. It is filed as cell-based. The procedure: The MCF-7 cell line was used for cell cycle analysis. Assay was carried out as reported previously.[39] See ESI Appendix A. ^† […]
as §1
To measure the cytotoxic actvity of the synthesized acrylate derivatives 5a,b and 6a-i in breast cancer (MCF-7) cell line. Cell viability assay was assessed using MTT assay method. Cells at density of 1 x 104 were seeded in a 96-well plate at 37 °C for 24 h under 5% CO2. After incubation, the cells were treated with different concentrations of the test acrylate derivatives 5a-6i and incubated for 24 h, then 20 µl of MTT solution at 5 mg/mL was applied and incubated for 4 h at 37 °C. Dimethyl sulphoxide (DMSO) in volume of 100 µl was added to each well to dissolve the purple formazan that had formed. The color intensity of the formazan product, which represents the growth condition of the cells, is quantified by using an ELISA plate reader (EXL 800, USA) at 570 nm absorbance. The experimental conditions were carried out with at least three replicates, and the experiments were repeated at least three times.
as §4
Compound 6e and CA-4 were evaluated for their tubulin inhibitory activity according to manufacturer’s instructions using # abcam Human Beta-tubulin simplestep ELISA […]
(§5) S4.2.3. Cell cycle analysis of compound 6e
Cell cycle analysis in MCF-7 cells was investigated using fluorescent Annexin V-FITC/ PI detection kit (BioVision EZCellTM Cell Cycle Analysis Kit Catalog #K920) by flow cytometry assay. MCF-7 cells at a density of 2 × 10^5 per well were harvested and washed twice in PBS. After that, the cells were incubated at 37 °C and 5% CO2.
The medium was incubated with the tested compound 6e at ita IC50 (µM) for 48 h, washed twice in PBS, fixed with 70% ethanol, rinsed again with PBS. Afterward, medium was stained with DNA fluorochrome PI for 15 min at 37 °C. The samples were immediately analyzed using Facs Calibur flow cytometer (Becton and Dickinson, Heidelberg, Germany).
S4.2.4. Apoptosis assay for compound 6e […]

Data set [5] relates to MCF-7 breast carcinoma cells. Description: Annexin V-FITC/PI apoptosis assay in MCF-7 cells. The following applies: 2.57 μM, 48 h. It is filed as cell-based. The procedure:
as §1, §2, §3
S4.2.2. Tubulin polymerization Assay […]
to manufacturer’s instructions using # abcam Human Beta-tubulin simplestep ELISA […]
as §5
Cell cycle analysis in MCF-7 cells was investigated using fluorescent Annexin V-FITC/ PI detection kit (BioVision EZCellTM Cell Cycle Analysis Kit Catalog #K920) by flow cytometry assay. MCF-7 cells at a density of 2 × 10^5 per well were harvested and washed twice in PBS. […]
immediately analyzed using FACS Calibur flow cytometer (Becton and Dickinson, […]

Data set [6] relates to p53. Description: qRT-PCR gene expression of p53 in MCF-7 cells. It is filed as cell-based. The note with it: 2.57 μM, 48 h. The text has this: (§6) p53, Bax and Bcl-2 play a key role in controlling intrinsic mitochondrial cellular death.[36] […] During the apoptotic process, these mediators have opposing effects. p53 and Bax have proapoptotic impacts, while Bcl-2 has anti-apoptotic effects. […] This assay utilized the quantitative real time reverse transcriptase PCR (qRT-PCR) assay. […] On the other hand, compound 6e decreased the level of anti-apoptotic gene Bcl-2 level by 0.38-fold less than untreated cells.
(§7) The MCF-7 cell line was used for measurement of the expression levels of Apoptotic markers. […]
(§8) S4.2.5. qRT-PCR measurements of p53, Bax and Bcl2 for compound 6e
(§9) Real-time PCR for p53, BAX and Bcl-2 genes expression was done using commercial Qiagen RNA extraction/ BioRad SYBER green PCR master mix according manufacturer's instructions. Briefly, 2 µl of cDNA template, 10 pMol of each forward and reverse primer, 10 µl of 2X Master Mix and to 20 µl total reaction mixture volume by nuclease free water and then was introduced to thermal cycler instrument (Thermo Scientific, USA). The cycling parameters for the PCR amplification were achieved by initial denaturation at 95 °C for 3 minutes followed by 40 cycles of 94 °C for 15 seconds and annealing/extension step at 60 °C for 1 min. Relative quantification of target genes was run on Rotor-Gene 6000 Series Software 1.7 (Build […]
(§10) Table 1: The primer sequences for Real Time PCR assay

Data set [7] deals with Bax. Description: qRT-PCR gene expression of Bax in MCF-7 cells. Format: cell-based. The following applies: 2.57 μM, 48 h.
Source text: as §6, §7, §8, §9, §10

Data set [8] has as its system Bcl-2. Description: qRT-PCR gene expression of Bcl-2 in MCF-7 cells. It is filed as cell-based. The following applies: 2.57 μM, 48 h.
Source text: as §6, §7, §8, §9, §10
(In general: Real-time PCR tracks product formation cycle by cycle.)

Data set [9] has as its system Bax/Bcl-2. Description: Bax/Bcl-2 ratio from qRT-PCR in MCF-7 cells. It is filed as cell-based. The following applies: 2.57 μM, 48 h.
Source text: as §6, §7, §8, §9, §10

T1 sequence (P07437 whole entry): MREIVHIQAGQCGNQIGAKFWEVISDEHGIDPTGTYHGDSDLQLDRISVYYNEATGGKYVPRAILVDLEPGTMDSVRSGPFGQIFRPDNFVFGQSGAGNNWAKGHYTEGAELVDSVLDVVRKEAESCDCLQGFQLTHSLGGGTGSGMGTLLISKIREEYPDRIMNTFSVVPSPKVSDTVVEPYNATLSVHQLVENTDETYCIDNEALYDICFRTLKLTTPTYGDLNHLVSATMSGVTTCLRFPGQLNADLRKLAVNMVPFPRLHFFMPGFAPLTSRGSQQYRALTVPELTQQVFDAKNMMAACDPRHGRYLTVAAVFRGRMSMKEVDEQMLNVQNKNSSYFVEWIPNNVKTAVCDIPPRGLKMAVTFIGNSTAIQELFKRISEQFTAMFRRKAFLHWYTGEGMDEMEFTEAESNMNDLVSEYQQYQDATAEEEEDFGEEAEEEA
T1 sequence (P68363 whole entry partner): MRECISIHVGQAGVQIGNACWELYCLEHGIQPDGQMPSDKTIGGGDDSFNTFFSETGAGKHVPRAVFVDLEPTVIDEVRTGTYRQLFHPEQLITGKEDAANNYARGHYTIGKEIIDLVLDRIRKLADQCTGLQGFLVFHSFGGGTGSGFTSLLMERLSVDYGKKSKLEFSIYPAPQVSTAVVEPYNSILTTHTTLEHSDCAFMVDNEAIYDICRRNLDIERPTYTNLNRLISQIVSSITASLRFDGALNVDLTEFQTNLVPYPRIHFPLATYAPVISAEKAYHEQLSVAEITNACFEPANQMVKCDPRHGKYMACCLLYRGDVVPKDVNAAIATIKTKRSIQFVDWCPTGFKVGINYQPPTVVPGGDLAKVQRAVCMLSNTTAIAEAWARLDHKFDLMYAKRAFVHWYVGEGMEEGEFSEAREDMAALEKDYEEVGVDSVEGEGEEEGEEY

`COc1ccc(C(=O)N/C(=C\c2ccc(OC)c(OC)c2OC)C(=O)O)cc1OC` [5a, (Z)-2-(3,4-Dimethoxybenzamido)-3-(2,3,4-trimethoxyphenyl)acrylic acid] returned a melting point of 201 to 203 °C. In data set [1], half-maximal inhibition (IC50) required 9.31 ± 0.35 µM.

As to `COc1cc(C(=O)N/C(=C\c2ccc(OC)c(OC)c2OC)C(=O)O)cc(OC)c1OC` [5b, (Z)-2-(3,4,5-Trimethoxybenzamido)-3-(2,3,4-trimethoxyphenyl)acrylic acid], the melting point fell in the range of 217 to 219 °C. In data set [1], this molecule displayed a half-inhibitory concentration (IC50) of 5.12 ± 0.32 µM.

In turn, `COC(=O)/C(=C/c1ccc(OC)c(OC)c1OC)NC(=O)c1ccc(OC)c(OC)c1` [6a, (Z)-Methyl 2-(3,4-dimethoxybenzamido)-3-(2,3,4-trimethoxyphenyl)acrylate] had a melting point of 177 to 179 °C. For the same molecule, the midpoint of inhibition in [1], the IC50, lay at 6.74 ± 0.78 µM.

The molecule `CCOC(=O)/C(=C/c1ccc(OC)c(OC)c1OC)NC(=O)c1ccc(OC)c(OC)c1` [6b, (Z)-Ethyl 2-(3,4-dimethoxybenzamido)-3-(2,3,4-trimethoxyphenyl)acrylate] registered a melting point of 154 to 156 °C. In addition, the IC50 in data set [1] stood at 17.1 ± 0.49 µM.

Molecule `CCCOC(=O)/C(=C/c1ccc(OC)c(OC)c1OC)NC(=O)c1ccc(OC)c(OC)c1` [6c, (Z)-Propyl 2-(3,4-dimethoxybenzamido)-3-(2,3,4-trimethoxyphenyl)acrylate] gave a melting point of 119 to 121 °C. The molecule also displayed an IC50 in data set [1] of 20.3 ± 0.44 µM.

`CCCCOC(=O)/C(=C/c1ccc(OC)c(OC)c1OC)NC(=O)c1ccc(OC)c(OC)c1` [6d, (Z)-Butyl 2-(3,4-dimethoxybenzamido)-3-(2,3,4-trimethoxyphenyl)acrylate] registered a melting point of 132 to 134 °C. The molecule further returned an IC50 in data set [1] of 42.1 ± 0.96 µM.

Consider `COC(=O)/C(=C/c1ccc(OC)c(OC)c1OC)NC(=O)c1cc(OC)c(OC)c(OC)c1` [6e, (Z)-Methyl 2-(3,4,5-trimethoxybenzamido)-3-(2,3,4-trimethoxyphenyl)acrylate], for which the half-inhibitory concentration (IC50) in data set [1] is 2.57 ± 0.16 µM; in data set [2], 19.1 ± 0.31 µM. Also, the “fold decrease in the level of β-tubulin polymerization compared to untreated control cells” value in [3] (2.57 μM) turned out to be 5.73 fold. Also, in data set [3], the “β-tubulin polymerization inhibition percentage” value was found to be 81.16%. The “cell population in G2/M phase” value in data set [4] (control 8.20%) is on record as 29.96%. For the same molecule, the “cell population in S phase” value in data set [4] (control 26.88%) is listed as 22.06%. The “cell population in G1 phase” value in data set [4] (control 54.92%) is reported as 47.98%. Moreover, in data set [5] (control 0.24%), the “late stage apoptotic cells” value was 23.28%. Also, the “early stage apoptotic cells” value in [5] (control 0.38%) was 14.55%. In addition, the “p53 gene expression level, fold relative to untreated control cells” value in data set [6] was 6.18 fold. Besides, in data set [7], the “Bax gene expression level, fold relative to untreated control cells” value was found to be 3.99 fold. The “Bcl-2 gene expression level, fold relative to untreated cells (decrease)” value in data set [8] stood at 0.38 fold. For the same molecule, the “increase of the ratio of Bax/Bcl-2 compared to untreated cells” value in [9] was 10.5 fold.

`CCOC(=O)/C(=C/c1ccc(OC)c(OC)c1OC)NC(=O)c1cc(OC)c(OC)c(OC)c1` [6f, (Z)-Ethyl 2-(3,4,5-trimethoxybenzamido)-3-(2,3,4-trimethoxyphenyl)acrylate] gave a melting point of 127 to 129 °C. Besides, in data set [1], half-maximal inhibition (IC50) was put at 3.26 ± 0.21 µM.

In the case of `CCCOC(=O)/C(=C/c1ccc(OC)c(OC)c1OC)NC(=O)c1cc(OC)c(OC)c(OC)c1` [6g, (Z)-Propyl 2-(3,4,5-trimethoxybenzamido)-3-(2,3,4-trimethoxyphenyl)acrylate], the melting point was 111 to 113 °C. The molecule further yielded a half-inhibitory concentration (IC50) in [1] of 11.3 ± 0.75 µM.

The molecule `COc1cc(C(=O)N/C(=C\c2ccc(OC)c(OC)c2OC)C(=O)OC(C)C)cc(OC)c1OC` [6h, (Z)-Isopropyl 2-(3,4,5-trimethoxybenzamido)-3-(2,3,4-trimethoxyphenyl)acrylate] had a melting point of 105 to 107 °C. Besides, it took 7.08 ± 0.29 µM to reach half-maximal inhibition in data set [1] (IC50).

`CCCCOC(=O)C(=Cc1ccc(OC)c(OC)c1OC)NC(=O)c1cc(OC)c(OC)c(OC)c1` [6i, Butyl 2-(3,4,5-trimethoxybenzamido)-3-(2,3,4-trimethoxyphenyl)acrylate] gave a melting point of 118 to 120 °C. The same molecule showed an IC50 in [1] of 33 ± 1.03 µM.

`COc1ccc(/C=C\c2cc(OC)c(OC)c(OC)c2)cc1O` [CA-4, combretastatin A-4, reference compound]: the IC50 in [1] was determined as 1.25 ± 0.08 µM; in data set [2] it was 13.2 ± 0.19 µM. Besides, the “β-tubulin polymerization inhibition percentage” value in data set [3] is 89.17% and 82.82%.

One may read the IC50 as the midpoint of a concentration-inhibition curve. A higher IC50 goes with a need for much substance. Broadly, the melting point is the temperature, or range, at which the solid turns liquid.
